The assay deals with T1, RTCB (Homo sapiens, UniProt Q9Y3I0).
T1 construct: full length (505 residues), N-terminal His6 tag removed with TEV protease, expressed in Sf9 insect cells; model residues 3-505 with gaps
T1 sequence (Q9Y3I0 1-505): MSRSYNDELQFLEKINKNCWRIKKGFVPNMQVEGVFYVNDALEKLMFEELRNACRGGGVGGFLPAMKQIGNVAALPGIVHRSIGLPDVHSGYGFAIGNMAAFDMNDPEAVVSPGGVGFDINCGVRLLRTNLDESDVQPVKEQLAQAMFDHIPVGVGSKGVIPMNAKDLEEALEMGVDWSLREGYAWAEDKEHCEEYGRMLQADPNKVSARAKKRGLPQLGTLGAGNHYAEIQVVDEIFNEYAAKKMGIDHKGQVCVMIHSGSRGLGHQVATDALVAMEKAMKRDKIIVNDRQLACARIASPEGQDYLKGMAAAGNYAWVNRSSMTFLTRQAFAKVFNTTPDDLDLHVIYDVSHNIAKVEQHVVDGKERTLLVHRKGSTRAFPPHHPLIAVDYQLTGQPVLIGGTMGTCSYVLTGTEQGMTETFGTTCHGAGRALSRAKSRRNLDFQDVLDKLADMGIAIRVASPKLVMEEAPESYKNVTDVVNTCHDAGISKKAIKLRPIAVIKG
As to the kind of experiment: X-ray crystal structure, […] Å. Format: binding. The conditions noted are these: two Co2+ ions in active site, crystallised at pH 5.5, 20 °C, 5 mM CoCl2, 0.5 mM GMP, non-covalent product-bound state.

As to `Nc1nc2c(ncn2[C@@H]2O[C@H](COP(=O)(O)O)[C@@H](O)[C@H]2O)c(=O)[nH]1` [GMP], the “X-ray crystal structure, 2.3 Å” value is “crystal structure of human RTCB in complex with a GMP molecule and two divalent cobalt”.

(Values after PMC8668186, “Molecular architecture of the human tRNA ligase complex” (eLife, 2021).)
